Each structure is given as a SMILES string. Numbered stars: 1 amine (or outer) side, 2 acyl side, 3 side chain; on linkers, the order of the positions; unused ones are H or OH. Side chains are listed from the residue outwards. Peptide text beside a SMILES is read from it. * marks the point of attachment. γGlu = O=C(O)[C@H](CCC(=O)[*:2])N[*:1]; Palmitoyl = CCCCCCCCCCCCCCCC(=O)*; Ahx = NCCCCCC(=O)O

What all share (experiment): cAMP activity assay in assay medium (assay 1)
Holding throughout (assay type): cell-based

One assay deals with T1, Human GIPr (Homo sapiens, UniProt P48546).
T1 construct: expressed in transfected cells
T1 sequence (P48546 22-466): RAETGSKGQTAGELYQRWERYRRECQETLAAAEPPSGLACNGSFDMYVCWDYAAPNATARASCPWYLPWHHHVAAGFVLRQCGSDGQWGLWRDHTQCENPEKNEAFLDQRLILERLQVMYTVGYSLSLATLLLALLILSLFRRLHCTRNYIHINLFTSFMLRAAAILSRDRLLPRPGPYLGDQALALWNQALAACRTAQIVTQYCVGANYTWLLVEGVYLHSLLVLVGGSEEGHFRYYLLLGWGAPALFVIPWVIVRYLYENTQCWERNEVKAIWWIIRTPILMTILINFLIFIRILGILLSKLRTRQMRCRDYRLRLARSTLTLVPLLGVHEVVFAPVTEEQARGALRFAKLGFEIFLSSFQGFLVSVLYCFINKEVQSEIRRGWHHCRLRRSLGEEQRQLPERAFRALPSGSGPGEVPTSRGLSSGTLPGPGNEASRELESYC
The following applies: assay medium; Table 4; read-out: hGIPR EC50. The text has this:
(§1) Biological Activity of Peptides in Cell-Based cAMP Activity Assay (Assay 1):
(§2) All sample dilutions were made in duplicate.

Another assay addresses T2, Human GlucR (Homo sapiens, UniProt P47871).
T2 construct: expressed in transfected cells
The following applies: assay medium; Table 4; read-out: hGlucR EC50.
Text: as §1, §2

A further assay addresses Human GLP1R (Homo sapiens, UniProt P43220). Further details: expressed in transfected cells. Conditions: assay medium; Table 4; read-out: hGLP1R EC50.
Text: as §1, §2

Human GLP1R, sequence (P43220 24-463): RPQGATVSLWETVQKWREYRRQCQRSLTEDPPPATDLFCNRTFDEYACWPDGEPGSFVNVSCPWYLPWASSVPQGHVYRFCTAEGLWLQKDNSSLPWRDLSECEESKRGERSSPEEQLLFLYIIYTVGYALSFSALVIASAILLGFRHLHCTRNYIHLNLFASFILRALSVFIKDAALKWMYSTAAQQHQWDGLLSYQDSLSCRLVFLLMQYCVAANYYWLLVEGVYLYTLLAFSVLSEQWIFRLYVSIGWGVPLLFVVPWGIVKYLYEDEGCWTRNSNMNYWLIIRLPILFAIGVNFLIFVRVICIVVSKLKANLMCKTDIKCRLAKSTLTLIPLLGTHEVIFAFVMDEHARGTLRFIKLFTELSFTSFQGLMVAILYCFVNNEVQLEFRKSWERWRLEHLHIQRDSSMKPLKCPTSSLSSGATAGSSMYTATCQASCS
T2 sequence (P47871 26-477): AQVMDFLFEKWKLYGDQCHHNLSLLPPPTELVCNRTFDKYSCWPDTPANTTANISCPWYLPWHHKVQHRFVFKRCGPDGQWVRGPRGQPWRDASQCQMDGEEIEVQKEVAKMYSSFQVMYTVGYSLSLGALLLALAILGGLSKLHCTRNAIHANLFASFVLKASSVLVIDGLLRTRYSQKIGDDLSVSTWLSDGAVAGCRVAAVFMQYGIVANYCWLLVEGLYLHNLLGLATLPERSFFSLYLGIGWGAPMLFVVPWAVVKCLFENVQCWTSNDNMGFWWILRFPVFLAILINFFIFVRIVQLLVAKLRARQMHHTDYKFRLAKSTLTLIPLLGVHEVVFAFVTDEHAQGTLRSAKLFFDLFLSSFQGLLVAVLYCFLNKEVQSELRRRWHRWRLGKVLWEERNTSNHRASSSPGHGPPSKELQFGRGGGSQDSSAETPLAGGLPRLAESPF

The EC50 is the concentration at which the effect is half-maximal. In the case of `CCCCCCCCCCCCCCCC(=O)N[C@@H](CCC(=O)NCCCC[C@H](NC(=O)[C@H](CO)NC(=O)[C@H](CC(=O)O)NC(=O)[C@H](CC(C)C)NC(=O)[C@H](Cc1ccc(O)cc1)NC(=O)[C@H](CCCCN)NC(=O)[C@H](CO)NC(=O)[C@H](Cc1ccc(O)cc1)NC(=O)[C@H](CC(=O)O)NC(=O)[C@H](CO)NC(=O)[C@@H](NC(=O)[C@H](Cc1ccccc1)NC(=O)[C@@H](NC(=O)CNC(=O)[C@H](CCC(=O)O)NC(=O)CNC(=O)[C@@H](N)Cc1c[nH]cn1)[C@@H](C)O)[C@@H](C)O)C(=O)N[C@@H](CCCNC(=N)N)C(=O)N[C@@H](C)C(=O)N[C@@H](CCC(=O)O)C(=O)N[C@@H](CC(=O)O)C(=O)N[C@@H](Cc1ccccc1)C(=O)N[C@H](C(=O)N[C@@H](CCC(=O)O)C(=O)N[C@@H](Cc1c[nH]c2ccccc12)C(=O)N[C@@H](CC(C)C)C(=O)N[C@H](C(=O)N[C@@H](C)C(=O)NCC(=O)NCC(N)=O)C(C)C)C(C)C)C(=O)O` [g681] (H-HGEGTFTSDYSKYLDSK([γGlu-Palmitoyl])RAEDFVEWLVAGG-NH2; N-terminus assumed), the values for the EC50 on Human GIPr, at Human GlucR and on Human GLP1R were 124 nM, 39.9 nM and 0.283 nM, respectively.

In the case of `CCCCCCCCCCCCCCCC(=O)NCCCCCC(=O)NCCCC[C@H](NC(=O)[C@H](CO)NC(=O)[C@H](CC(=O)O)NC(=O)[C@H](CC(C)C)NC(=O)[C@H](Cc1ccc(O)cc1)NC(=O)[C@H](CCC(=O)O)NC(=O)[C@H](CO)NC(=O)[C@H](Cc1ccc(O)cc1)NC(=O)[C@H](CC(=O)O)NC(=O)[C@H](CO)NC(=O)[C@@H](NC(=O)[C@H](Cc1ccccc1)NC(=O)[C@@H](NC(=O)CNC(=O)[C@H](CCC(N)=O)NC(=O)CNC(=O)[C@@H](N)Cc1c[nH]cn1)[C@@H](C)O)[C@@H](C)O)C(=O)N[C@@H](CCCNC(=N)N)C(=O)N[C@@H](C)C(=O)N[C@@H](CCCNC(=N)N)C(=O)N[C@@H](CC(=O)O)C(=O)N[C@@H](Cc1ccccc1)C(=O)N[C@H](C(=O)N[C@@H](C)C(=O)N[C@@H](Cc1c[nH]c2ccccc12)C(=O)N[C@@H](CC(C)C)C(=O)N[C@@H](CCC(=O)O)C(=O)N[C@@H](CCCNC(=N)N)C(=O)NCC(=O)NCC(N)=O)C(C)C` [g684] (H-HGQGTFTSDYSEYLDSK([Ahx-Palmitoyl])RARDFVAWLERGG-NH2; N-terminus assumed), the concentration giving a half-maximal response (EC50) was determined as 146 nM at Human GIPr, 0.164 nM on Human GlucR and 0.0151 nM at Human GLP1R.

As for `CCCCCCCCCCCCCCCC(=O)N[C@@H](CCC(=O)NCCCC[C@H](NC(=O)[C@H](CC(=O)O)NC(=O)[C@H](CO)NC(=O)[C@@H](NC(=O)[C@H](Cc1ccccc1)NC(=O)[C@@H](NC(=O)CNC(=O)[C@H](CCC(N)=O)NC(=O)[C@H](CO)NC(=O)[C@@H](N)Cc1c[nH]cn1)[C@@H](C)O)[C@@H](C)O)C(=O)N[C@@H](CO)C(=O)N[C@@H](CCCCN)C(=O)N[C@@H](Cc1ccc(O)cc1)C(=O)N[C@@H](CC(C)C)C(=O)N[C@@H](CC(=O)O)C(=O)N[C@@H](CO)C(=O)N[C@@H](CCCNC(=N)N)C(=O)N[C@@H](CCCNC(=N)N)C(=O)N[C@@H](C)C(=O)N[C@@H](CCC(N)=O)C(=O)N[C@@H](CC(=O)O)C(=O)N[C@@H](Cc1ccccc1)C(=O)N[C@H](C(=O)N[C@@H](CCC(N)=O)C(=O)N[C@@H](Cc1c[nH]c2ccccc12)C(=O)N[C@@H](CC(C)C)C(=O)N[C@H](C(=O)N[C@@H](C)C(=O)NCC(=O)NCC(N)=O)C(C)C)C(C)C)C(=O)O` [g715] (H-HSQGTFTSDK([γGlu-Palmitoyl])SKYLDSRRAQDFVQWLVAGG-NH2; N-terminus assumed), the concentration for a half-maximal effect (EC50) is 0.998 nM on Human GIPr, 0.00253 nM at Human GlucR and 0.0204 nM at Human GLP1R.

As to `CCCCCCCCCCCCCCCC(=O)N[C@@H](CCC(=O)NCCCC[C@H](NC(=O)[C@H](Cc1ccc(O)cc1)NC(=O)[C@H](CC(=O)O)NC(=O)[C@H](CO)NC(=O)[C@@H](NC(=O)[C@H](Cc1ccccc1)NC(=O)[C@@H](NC(=O)CNC(=O)[C@H](CCC(N)=O)NC(=O)[C@H](CO)NC(=O)[C@@H](N)Cc1c[nH]cn1)[C@@H](C)O)[C@@H](C)O)C(=O)N[C@@H](CCCCN)C(=O)N[C@@H](Cc1ccc(O)cc1)C(=O)N[C@@H](CC(C)C)C(=O)N[C@@H](CC(=O)O)C(=O)N[C@@H](CO)C(=O)N[C@@H](CCCNC(=N)N)C(=O)N[C@@H](CCCNC(=N)N)C(=O)N[C@@H](C)C(=O)N[C@@H](CCC(N)=O)C(=O)N[C@@H](CC(=O)O)C(=O)N[C@@H](Cc1ccccc1)C(=O)N[C@H](C(=O)N[C@@H](CCC(N)=O)C(=O)N[C@@H](Cc1c[nH]c2ccccc12)C(=O)N[C@@H](CC(C)C)C(=O)N[C@H](C(=O)N[C@@H](C)C(=O)NCC(=O)NCC(N)=O)C(C)C)C(C)C)C(=O)O` [g716] (H-HSQGTFTSDYK([γGlu-Palmitoyl])KYLDSRRAQDFVQWLVAGG-NH2; N-terminus assumed), the EC50 at Human GIPr stood at 11.8 nM; at Human GlucR, 2.46 nM; at Human GLP1R, 12.9 nM.

Consider `CCCCCCCCCCCCCCCC(=O)N[C@@H](CCC(=O)NCCCC[C@H](NC(=O)[C@H](CO)NC(=O)[C@H](CC(=O)O)NC(=O)[C@H](CC(C)C)NC(=O)[C@H](Cc1ccc(O)cc1)NC(=O)[C@H](CCC(=O)O)NC(=O)[C@H](CO)NC(=O)[C@H](Cc1ccc(O)cc1)NC(=O)[C@H](CC(=O)O)NC(=O)[C@H](CO)NC(=O)[C@@H](NC(=O)[C@H](Cc1ccccc1)NC(=O)[C@@H](NC(=O)CNC(=O)[C@H](CCC(N)=O)NC(=O)CNC(=O)[C@@H](N)Cc1c[nH]cn1)[C@@H](C)O)[C@@H](C)O)C(=O)N[C@@H](CCCNC(=N)N)C(=O)N[C@@H](C)C(=O)N[C@@H](CCCNC(=N)N)C(=O)N[C@@H](CC(=O)O)C(=O)N[C@@H](Cc1ccccc1)C(=O)N[C@H](C(=O)N[C@@H](C)C(=O)N[C@@H](Cc1c[nH]c2ccccc12)C(=O)N[C@@H](CC(C)C)C(=O)N[C@@H](CCC(=O)O)C(=O)N[C@@H](CCCNC(=N)N)C(=O)NCC(=O)NCC(N)=O)C(C)C)C(=O)O` [g721] (H-HGQGTFTSDYSEYLDSK([γGlu-Palmitoyl])RARDFVAWLERGG-NH2; N-terminus assumed), for which the results for the EC50 at Human GIPr, at Human GlucR and at Human GLP1R were 979 nM, 3.23 nM and 0.411 nM, respectively.

`CCCCCCCCCCCCCCCC(=O)N[C@@H](CCC(=O)NCCCC[C@H](NC(=O)[C@H](CO)NC(=O)[C@H](CC(=O)O)NC(=O)[C@H](CC(C)C)NC(=O)[C@H](Cc1ccc(O)cc1)NC(=O)[C@H](CCC(=O)O)NC(=O)[C@H](CO)NC(=O)[C@H](Cc1ccc(O)cc1)NC(=O)[C@H](CC(=O)O)NC(=O)[C@H](CO)NC(=O)[C@@H](NC(=O)[C@H](Cc1ccccc1)NC(=O)[C@@H](NC(=O)CNC(=O)[C@H](CCC(N)=O)NC(=O)CNC(=O)[C@@H](N)Cc1c[nH]cn1)[C@@H](C)O)[C@@H](C)O)C(=O)N[C@@H](CCCNC(=N)N)C(=O)N[C@@H](C)C(=O)N[C@@H](C)C(=O)N[C@@H](CC(=O)O)C(=O)N[C@@H](Cc1ccccc1)C(=O)N[C@H](C(=O)N[C@@H](C)C(=O)N[C@@H](Cc1c[nH]c2ccccc12)C(=O)N[C@@H](CC(C)C)C(=O)N[C@@H](CCC(=O)O)C(=O)N[C@@H](CCCNC(=N)N)C(=O)NCC(=O)NCC(N)=O)C(C)C)C(=O)O` [g722]: the concentration giving a half-maximal response (EC50) was determined as 1670 nM on Human GIPr, 11.1 nM on Human GlucR and 0.426 nM on Human GLP1R.

In the case of `CCCCCCCCCCCCCCCC(=O)N[C@@H](CCC(=O)NCCCC[C@H](NC(=O)[C@H](CO)NC(=O)[C@H](CC(=O)O)NC(=O)[C@H](CC(C)C)NC(=O)[C@H](Cc1ccc(O)cc1)NC(=O)[C@H](CCC(=O)O)NC(=O)[C@H](CO)NC(=O)[C@H](Cc1ccc(O)cc1)NC(=O)[C@H](CC(=O)O)NC(=O)[C@H](CO)NC(=O)[C@@H](NC(=O)[C@H](Cc1ccccc1)NC(=O)[C@@H](NC(=O)CNC(=O)[C@H](CCC(N)=O)NC(=O)CNC(=O)[C@@H](N)Cc1c[nH]cn1)[C@@H](C)O)[C@@H](C)O)C(=O)N[C@@H](CCCNC(=N)N)C(=O)N[C@@H](C)C(=O)N[C@@H](CCCNC(=N)N)C(=O)N[C@@H](CC(=O)O)C(=O)N[C@@H](Cc1ccccc1)C(=O)N[C@H](C(=O)N[C@@H](CCC(=O)O)C(=O)N[C@@H](Cc1c[nH]c2ccccc12)C(=O)N[C@@H](CC(C)C)C(=O)N[C@@H](CCC(=O)O)C(=O)N[C@@H](CCCNC(=N)N)C(=O)NCC(=O)NCC(N)=O)C(C)C)C(=O)O` [g723], the EC50 on Human GIPr amounted to 761 nM; at Human GlucR, 8.95 nM; at Human GLP1R, 0.33 nM.

For the molecule `CCCCCCCCCCCCCCCC(=O)NCCCCCC(=O)NCCCC[C@H](NC(=O)[C@H](CO)NC(=O)[C@H](CC(=O)O)NC(=O)[C@H](CC(C)C)NC(=O)[C@H](Cc1ccc(O)cc1)NC(=O)[C@H](CCC(=O)O)NC(=O)[C@H](CO)NC(=O)[C@H](Cc1ccc(O)cc1)NC(=O)[C@H](CC(=O)O)NC(=O)[C@H](CO)NC(=O)[C@@H](NC(=O)[C@H](Cc1ccccc1)NC(=O)[C@@H](NC(=O)CNC(=O)[C@H](CCC(=O)O)NC(=O)CNC(=O)[C@@H](N)Cc1c[nH]cn1)[C@@H](C)O)[C@@H](C)O)C(=O)N[C@@H](CCCNC(=N)N)C(=O)N[C@@H](C)C(=O)N[C@@H](CCCNC(=N)N)C(=O)N[C@@H](CC(=O)O)C(=O)N[C@@H](Cc1ccccc1)C(=O)N[C@H](C(=O)N[C@@H](C)C(=O)N[C@@H](Cc1c[nH]c2ccccc12)C(=O)N[C@@H](CC(C)C)C(=O)N[C@@H](CCC(=O)O)C(=O)N[C@@H](CCCNC(=N)N)C(=O)NCC(=O)NCC(N)=O)C(C)C` [g724] (H-HGEGTFTSDYSEYLDSK([Ahx-Palmitoyl])RARDFVAWLERGG-NH2; N-terminus assumed), the concentration giving a half-maximal response (EC50) was 933 nM at Human GIPr, 30.9 nM on Human GlucR and 0.019 nM on Human GLP1R.
